The subject of data set [1] is human pancreatic cancer growth and progression mouse model (subcutaneous and intraperitoneal human pancreatic cancer cell-transplanted). As to the kind of experiment: Selective absorption into tissues of human pancreatic cancer growth and progression mouse model, fluorescence signal (Test Examples 3, 4, Reference Example 2). The note with it: 200 μg intravenously, 30 minutes after injection. Type of data set: in vivo, Balb/c nu/nu mouse. On the procedure:
Subsequently, 200 μg of each of the fluorescent labeled peptides prepared above in “1.” was injected intravenously into a human pancreatic cancer growth and progression mouse model (Balb/c nu/nu mouse, subcutaneous and intraperitoneal human pancreatic cancer cell-transplanted model). The pharmacokinetics of the peptide 30 minutes after the intravenous injection were then analyzed by tissue analysis of the freshly dissected specimen of the administered mouse, with the absorption quantified by detection of the fluorescence signal. […] In FIG. 9A, “sc tumor” is an abbreviation for “subcutaneous tumor”. In FIG. 9B, “abd tumor” is an abbreviation for “abdominal tumor”, indicating a tumor formed intraperitoneally. Further, “br” indicates the brain, “hr” indicates the heart, “kd” indicates the kidney, and “liv” indicates the liver. Furthermore, “liv. meta” is an abbreviation for “liver metastatic tumor”, and describes a tumor that has metastasized to the liver. Moreover, “panc” indicates the pancreas, and “sp” indicates the spleen. These same abbreviations are also used in subsequent figures. Furthermore, the term “untreated” in FIG. 9A indicates tissues resected from a mouse that was not administered with any fluorescent labeled peptide.
Specifically, first, either 27 μg or 200 μg of fluorescein was injected intravenously into a human pancreatic cancer growth and progression mouse model (Balb/c nu/nu mouse, subcutaneous and intraperitoneal human pancreatic cancer cell-transplanted model). The pharmacokinetics of the FLC 30 minutes after the intravenous injection were then analyzed by tissue analysis of the freshly dissected specimen of the administered mouse, with the absorption quantified by detection of the fluorescence signal.

Data set [2] has as its system stomach cancer cells (SCH). As to the kind of experiment: Accumulation of FAM-labeled peptides in cells, inverted fluorescence microscope (Test Example 2). It counts as cell-based, human. Particulars: 2 μM, 37° C., 2 hours. On the procedure:
(§1) Tests were conducted to confirm the accumulation of each peptide in each of the cells shown below in Table 8. Further, among the peptides shown below in Table 9, the FAM-PCPP11 used in Test Example 1, the LL peptide in which the N-terminus had been FAM-labeled (FAM-LL), and the Ld peptide in which the N-terminus had been FAM-labeled (FAM-Ld) were used.
(§2) Each of FAM-PCPP11, FAM-LL and FAM-Ld was added to each of the cells shown in Table 8 in an amount sufficient to achieve a final concentration in the medium of 2 μM, and following cultivation of the cells at 37° C. for 2 hours, the sample was washed 3 times with a medium containing no peptide to remove any peptide within the medium. Subsequently, the incorporation of each of the peptides into each of the cells was evaluated visually using an inverted fluorescence microscope. Prior to the microscopic examination, the culture supernatant to which the peptide had been added was removed, and following washing three times with 1×PBS (−), a trypsin treatment was conducted to remove the adherent cells, and the resultant was immediately transferred into a new 96-well plate and once again suspended in fresh culture solution before the microscopic examination was performed. In FIG. 8A, “L” indicates the cells to which FAM-PCPP11 was added, “LL” indicates the cells to which FAM-LL was added, and “Ld” indicates the cells to which FAM-Ld was added. Further, the fluorescent images in the BxPC3 cells indicate a representative example of pancreatic cancer cells.
(§3) Furthermore, FIG. 8B is a graph quantifying the fluorescence detected in each of the above cells in FIG. 8A, with the fluorescence intensity detected in each cell shown relative to a value of 1.0 for the fluorescence detected in the H2110 cells, which is a cell line derived from an adenocarcinoma in a human non-small-cell lung cancer system, to which each of the FAM-PCPP11 and FAM-LL peptides had been added.

For data set [3], the system named is pancreatic cancer cells (BxPC3, PK-8, MIA-Paca2). Described as above. Particulars: 2 μM, 37° C., 2 hours. Type of data set: cell-based, human. On the procedure: as §1, §2, §3
Further, each of FAM-PCPP11, FAM-LL and FAM-NmLL was added to each of the cells shown in Table 8 in an amount sufficient to achieve a final concentration in the medium of 2 μM, and following cultivation of the cells at 37° C. for 2 hours, the sample was washed 3 times with a medium containing no peptide to remove any peptide within the medium. Subsequently, the incorporation of each of the peptides into each of the cells was evaluated visually using an inverted fluorescence microscope. […]

The test system of data set [4] is BxPC3 cells, PK-8 cells, AsPC1 cells and MIA-Paca2 cells (PDAC). Put plainly: Accumulation of PCPP11 and partially deleted peptides in cells (Reference Example 3). Particulars: for order of the strength of fluorescence in the pancreatic cancer cells: same method as Test Example 2; for fluorescence detected (absorbed fluorescence): same method as Test Example 2 (2 μM, 37° C., 2 hours). Type of data set: cell-based, human. On the procedure:
Test were conducted confirming the accumulation of PCPP11 and partially deleted peptides thereof in BxPC3 cells, PK-8 cells, AsPC1 cells and MIA-Paca2 cells (all cell lines derived from human invasive pancreatic ductal adenocarcinoma (PDAC)) and in H2110 cells (lung adenocarcinoma cells). The peptides shown below in Table 10 were used.
Using the same method as Test Example 2, each peptide was added to each of the cells and then observed under a microscope. In FIG. 16, “full length” indicates the cells to which FAM-PCPP11 was added, “trunc-ver1” indicates cells to which a trunc-ver1-PCPP11 was added, “trunc-ver2” indicates cells to which a trunc-ver2-PCPP11 was added, and “trunc-ver3” indicates cells to which a trunc-ver3-PCPP11 was added.

Data set [5] can be described thus: Degradation test by human blood plasma, MALDI-TOFMS analysis. It counts as in vitro ADME. The note with it: 50% by mass human blood plasma; 120 min; read-out: degradation resistance (proportion of the peptide retained without degradation).
A short description of data set [6]: human blood plasma having a concentration of 50% by mass. The note with it: up to 120 minutes.

Non-standard residues stand in square brackets, D forms with d. Residues, ends and D or L forms follow the SMILES beside them. *: point of attachment. 5FAM = O=C1OC2(c3ccc(O)cc3Oc3cc(O)ccc32)c2ccc(C(=O)*)cc21; NMeR = CN[C@@H](CCCNC(=N)N)C(=O)O

For the compound `C[C@H](O)[C@@H](NC(=O)[C@@H](Cc1c[nH]c2ccccc12)NC(=O)[C@@H](Cc1c[nH]cn1)NC(=O)[C@@H](CCCCN)NC(=O)[C@H]1CCCN1C(=O)CNC(=O)[C@@H]1CCCN1C(=O)[C@H](CCCCN)NC(=O)[C@H](Cc1c[nH]cn1)NC(=O)[C@H](Cc1c[nH]c2ccccc12)NC(=O)[C@@H](NC(=O)[C@@H](NC(=O)[C@@H]1CCCN1C(=O)[C@H](CCCNC(=N)N)NC(=O)[C@H](CCCNC(=N)N)NC(=O)c1ccc2c(c1)C(=O)OC21c2ccc(O)cc2Oc2cc(O)ccc21)[C@@H](C)O)[C@@H](C)O)C(=O)N[C@@H](C(=O)N1CCC[C@@H]1C(=O)N[C@H](CCCNC(=N)N)C(=O)N[C@H](CCCNC(=N)N)C(=O)O)[C@H](C)O` [FAM-Ld] (5FAM-RRPTTWHKPG[dP][dK][dH][dW][dT][dT][dP][dR][dR]-OH; C-terminus assumed), the “inhibitory performance on nonspecific absorption into untargeted normal organs” value in data set [1] is “satisfactorily maintained”. The “nonspecific absorption compared with conventional PCPP11” value in data set [1] (FIG. 10A to 10D) is on record as “inhibited even more effectively”. In data set [1] (FIG. 11), the “absorption into pancreatic malignant tumors compared with the conventional PCPP11” value is listed as “approximately 4 fold”. Moreover, the “fluorescence compared with the sample containing FAM-PCPP11” value in data set [2] and in data set [3] was “stronger fluorescence” throughout.

`C[C@@H](O)[C@H](NC(=O)[C@@H](NC(=O)[C@@H]1CCCN1C(=O)[C@H](CCCNC(=N)N)NC(=O)c1ccc2c(c1)C(=O)OC21c2ccc(O)cc2Oc2cc(O)ccc21)[C@@H](C)O)C(=O)N[C@@H](Cc1c[nH]c2ccccc12)C(=O)N[C@@H](Cc1c[nH]cn1)C(=O)N[C@@H](CCCCN)C(=O)N1CCC[C@H]1C(=O)O` [FAM-trunc-ver1-PCPP11] (5FAM-RPTTWHKP-OH; C-terminus assumed): in data set [4], the “order of the strength of fluorescence in the pancreatic cancer cells” value (“order of the strength of fluorescence” for short) is given as “full-length≥trunc-ver3>trunc-ver1>>trunc-ver2”.

Turning to `C[C@@H](O)[C@H](NC(=O)c1ccc2c(c1)C(=O)OC21c2ccc(O)cc2Oc2cc(O)ccc21)C(=O)N[C@H](C(=O)N[C@@H](Cc1c[nH]c2ccccc12)C(=O)N[C@@H](Cc1c[nH]cn1)C(=O)N[C@@H](CCCCN)C(=O)N1CCC[C@H]1C(=O)O)[C@@H](C)O` [FAM-trunc-ver2-PCPP11, [FAM]-TTWHKP] (5FAM-TTWHKP-OH; C-terminus assumed), in data set [4], the “order of the strength of fluorescence” value is given as “full-length≥trunc-ver3>trunc-ver1>>trunc-ver2” and the “fluorescence detected (absorbed fluorescence)” value (“fluorescence detected” below) was “marked reduction in absorbed fluorescence”.

As for `C[C@@H](O)[C@H](NC(=O)[C@@H](NC(=O)[C@@H]1CCCN1C(=O)[C@H](CCCNC(=N)N)NC(=O)[C@H](CCCNC(=N)N)NC(=O)c1ccc2c(c1)C(=O)OC21c2ccc(O)cc2Oc2cc(O)ccc21)[C@@H](C)O)C(=O)N[C@@H](Cc1c[nH]c2ccccc12)C(=O)N[C@@H](Cc1c[nH]cn1)C(=O)N[C@@H](CCCCN)C(=O)N1CCC[C@H]1C(=O)O` [No. 13, reference compound] (5FAM-RRPTTWHKP-OH; C-terminus assumed), the remaining at 2 h in data set [5] came to 29%. The “order of the strength of fluorescence” value in data set [4] is given as “full-length≥trunc-ver3>trunc-ver1>>trunc-ver2”.

For the compound `C[C@@H](O)[C@H](NC(=O)[C@@H](NC(=O)[C@@H]1CCCN1C(=O)[C@H](CCCNC(=N)N)NC(=O)c1ccc2c(c1)C(=O)OC21c2ccc(O)cc2Oc2cc(O)ccc21)[C@@H](C)O)C(=O)N[C@@H](Cc1c[nH]c2ccccc12)C(=O)O` [FAM-trunc-ver4-PCPP11, [FAM]-RPTTW] (5FAM-RPTTW-OH; C-terminus assumed), the “fluorescence detected” value in data set [4] is on record as “almost no fluorescence was observed”.

On to `C[C@@H](O)[C@H](NC(=O)[C@@H](NC(=O)[C@@H]1CCCN1C(=O)c1ccc2c(c1)C(=O)OC21c2ccc(O)cc2Oc2cc(O)ccc21)[C@@H](C)O)C(=O)N[C@@H](Cc1c[nH]c2ccccc12)C(=O)N[C@@H](Cc1c[nH]cn1)C(=O)O` [FAM-trunc-ver5-PCPP11, [FAM]-PTTWH] (5FAM-PTTWH-OH; C-terminus assumed), for which, in data set [4], the “fluorescence detected” value is recorded as “almost no fluorescence was observed”.

For the compound “R-mR-PTTWHKP-G-RRPTTWHKP (H-R[NMeR]PTTWHKPGRRPTTWHKP-OH; N-terminus and C-terminus assumed; SMILES C[C@@H](O)[C@H](NC(=O)[C@@H](NC(=O)[C@@H]1CCCN1C(=O)[C@H](CCCNC(=N)N)NC(=O)[C@H](CCCNC(=N)N)NC(=O)CNC(=O)[C@@H]1CCCN1C(=O)[C@H](CCCCN)NC(=O)[C@H](Cc1c[nH]cn1)NC(=O)[C@H](Cc1c[nH]c2ccccc12)NC(=O)[C@@H](NC(=O)[C@@H](NC(=O)[C@@H]1CCCN1C(=O)[C@H](CCCNC(=N)N)N(C)C(=O)[C@@H](N)CCCNC(=N)N)[C@@H](C)O)[C@@H](C)O)[C@@H](C)O)C(=O)N[C@@H](Cc1c[nH]c2ccccc12)C(=O)N[C@@H](Cc1c[nH]cn1)C(=O)N[C@@H](CCCCN)C(=O)N1CCC[C@H]1C(=O)O)”, in data set [6], the not cleaved stood at 100% after 120 minutes.

With “[FAM]-RRPTTWHKP (5FAM-RRPTTWHKP-OH; C-terminus assumed; SMILES C[C@@H](O)[C@H](NC(=O)[C@@H](NC(=O)[C@@H]1CCCN1C(=O)[C@H](CCCNC(=N)N)NC(=O)[C@H](CCCNC(=N)N)NC(=O)c1ccc2c(c1)C(=O)OC21c2ccc(O)cc2Oc2cc(O)ccc21)[C@@H](C)O)C(=O)N[C@@H](Cc1c[nH]c2ccccc12)C(=O)N[C@@H](Cc1c[nH]cn1)C(=O)N[C@@H](CCCCN)C(=O)N1CCC[C@H]1C(=O)O)”, the fragment found result in data set [6] was “[FAM]-RRPTTWH, 10 min”.

Turning to `C[C@@H](O)[C@H](NC(=O)[C@@H](NC(=O)[C@@H]1CCCN1C(=O)[C@H](CCCNC(=N)N)NC(=O)[C@H](CCCNC(=N)N)NC(=O)c1ccc2c(c1)C(=O)OC21c2ccc(O)cc2Oc2cc(O)ccc21)[C@@H](C)O)C(=O)N[C@@H](Cc1c[nH]c2ccccc12)C(=O)N[C@@H](Cc1c[nH]cn1)C(=O)O` [FAM-trunc-ver3-PCPP11, [FAM]-RRPTTWH] (5FAM-RRPTTWH-OH; C-terminus assumed), in data set [4], the “order of the strength of fluorescence” value is on record as “full-length≥trunc-ver3>trunc-ver1>>trunc-ver2”.

Values taken from patent US11447525B2 (NIIGATA UNIVERSITY, priority 2018, dated 2022).
